The target of data set [1] is T1, C-X-C chemokine receptor type 2 (Homo sapiens, UniProt P25025). Also: in other assays of this panel Not Active means under 50% inhibition at 10 µM.
T1 sequence (P25025 whole entry): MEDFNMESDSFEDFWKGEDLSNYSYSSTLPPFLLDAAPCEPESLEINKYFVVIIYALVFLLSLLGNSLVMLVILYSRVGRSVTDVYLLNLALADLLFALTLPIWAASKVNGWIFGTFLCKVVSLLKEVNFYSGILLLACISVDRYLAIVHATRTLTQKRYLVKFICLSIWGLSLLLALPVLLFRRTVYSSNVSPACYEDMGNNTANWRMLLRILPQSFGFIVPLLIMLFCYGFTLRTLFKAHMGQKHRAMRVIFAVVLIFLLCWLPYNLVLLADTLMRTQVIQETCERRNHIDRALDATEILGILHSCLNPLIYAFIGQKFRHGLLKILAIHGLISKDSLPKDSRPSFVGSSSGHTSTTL
It counts as cell membranes, Membrane. Particulars: cho-k1.

For data set [2], the target named is T2, Cathepsin G (Homo sapiens, UniProt P08311).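 Also: inhibition of Cathepsin G enzyme activity, tested on an AMC-conjugated peptide substrate; in other assays of this panel Not Active means under 50% inhibition at 10 µM.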
T2 sequence (P08311 whole entry): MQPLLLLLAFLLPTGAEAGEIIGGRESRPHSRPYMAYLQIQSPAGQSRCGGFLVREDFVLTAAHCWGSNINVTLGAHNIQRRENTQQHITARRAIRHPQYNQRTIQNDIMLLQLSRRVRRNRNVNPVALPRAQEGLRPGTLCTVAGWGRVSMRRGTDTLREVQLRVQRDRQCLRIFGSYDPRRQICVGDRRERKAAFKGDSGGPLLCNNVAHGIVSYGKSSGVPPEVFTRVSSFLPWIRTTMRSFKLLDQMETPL
It counts as tissue-based. The conditions noted are these: neutrophil.

In data set [3] the target is T3, Neutrophil elastase (Homo sapiens, UniProt P08246).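 Also: inhibition of neutrophil elastase enzyme activity, measured with a p-nitroanilide-linked peptide substrate; in other assays of this panel Not Active means under 50% inhibition at 10 µM.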
T3 sequence (P08246 whole entry): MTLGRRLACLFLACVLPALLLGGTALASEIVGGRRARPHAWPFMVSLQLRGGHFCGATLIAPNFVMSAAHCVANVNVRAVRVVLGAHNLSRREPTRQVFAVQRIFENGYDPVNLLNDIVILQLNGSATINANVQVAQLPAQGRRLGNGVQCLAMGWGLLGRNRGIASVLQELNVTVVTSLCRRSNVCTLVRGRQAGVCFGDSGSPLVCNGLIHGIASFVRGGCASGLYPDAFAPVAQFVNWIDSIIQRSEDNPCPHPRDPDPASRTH
In kind it is tissue-based.

The target in data set [4] is Glycine receptor (Rattus norvegicus, UniProt P22771+P24524+P07727+P20781). It counts as cell membranes, Wistar, Spinal cord, Membrane. Also: in other assays of this panel Not Active means under 50% inhibition at 10 µM.
Data set [5] is described as follows: DRUGMATRIX: Tumor Necrosis Factor (TNF), Non-Selective radioligand binding (ligand: [125I] TNF-alpha). In kind it is cell membranes, Membrane. The conditions noted are these: u-937; Not Active = under 50% inhibition at 10 µM.
Data set [6] addresses T4, Alpha-1D adrenergic receptor (Homo sapiens, UniProt P25100).
T4 sequence (P25100 whole entry): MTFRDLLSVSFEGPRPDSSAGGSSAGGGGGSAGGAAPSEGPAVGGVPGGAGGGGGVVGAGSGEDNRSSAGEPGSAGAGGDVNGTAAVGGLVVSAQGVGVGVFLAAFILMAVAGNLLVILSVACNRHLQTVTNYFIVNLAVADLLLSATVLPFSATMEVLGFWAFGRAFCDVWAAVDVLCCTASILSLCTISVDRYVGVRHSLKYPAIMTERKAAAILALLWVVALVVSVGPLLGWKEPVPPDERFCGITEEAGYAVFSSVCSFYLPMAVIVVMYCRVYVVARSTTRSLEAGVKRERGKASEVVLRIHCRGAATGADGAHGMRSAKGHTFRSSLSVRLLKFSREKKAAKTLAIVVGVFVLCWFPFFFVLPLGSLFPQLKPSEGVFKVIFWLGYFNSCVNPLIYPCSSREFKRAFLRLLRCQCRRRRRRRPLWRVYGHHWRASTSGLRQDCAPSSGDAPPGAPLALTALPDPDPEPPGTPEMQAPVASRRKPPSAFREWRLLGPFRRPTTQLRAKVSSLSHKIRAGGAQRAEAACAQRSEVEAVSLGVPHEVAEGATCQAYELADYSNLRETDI
It counts as cell membranes, HEK293, Membrane. Particulars: for IC50: hek293.

Data set [7] has as its target T5, Leukotriene C4 synthase (Cavia porcellus, UniProt A6XA80).
T5 sequence (A6XA80 whole entry): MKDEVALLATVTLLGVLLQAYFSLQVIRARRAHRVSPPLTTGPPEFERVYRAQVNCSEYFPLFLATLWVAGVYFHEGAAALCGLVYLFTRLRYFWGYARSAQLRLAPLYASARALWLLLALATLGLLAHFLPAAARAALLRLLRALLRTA
In kind it is tissue-based, Lung.

The target of data set [8] is T6, Glucocorticoid receptor (Homo sapiens, UniProt P04150). Also: in other assays of this panel Not Active means under 50% inhibition at 10 µM.
T6 sequence (P04150 whole entry): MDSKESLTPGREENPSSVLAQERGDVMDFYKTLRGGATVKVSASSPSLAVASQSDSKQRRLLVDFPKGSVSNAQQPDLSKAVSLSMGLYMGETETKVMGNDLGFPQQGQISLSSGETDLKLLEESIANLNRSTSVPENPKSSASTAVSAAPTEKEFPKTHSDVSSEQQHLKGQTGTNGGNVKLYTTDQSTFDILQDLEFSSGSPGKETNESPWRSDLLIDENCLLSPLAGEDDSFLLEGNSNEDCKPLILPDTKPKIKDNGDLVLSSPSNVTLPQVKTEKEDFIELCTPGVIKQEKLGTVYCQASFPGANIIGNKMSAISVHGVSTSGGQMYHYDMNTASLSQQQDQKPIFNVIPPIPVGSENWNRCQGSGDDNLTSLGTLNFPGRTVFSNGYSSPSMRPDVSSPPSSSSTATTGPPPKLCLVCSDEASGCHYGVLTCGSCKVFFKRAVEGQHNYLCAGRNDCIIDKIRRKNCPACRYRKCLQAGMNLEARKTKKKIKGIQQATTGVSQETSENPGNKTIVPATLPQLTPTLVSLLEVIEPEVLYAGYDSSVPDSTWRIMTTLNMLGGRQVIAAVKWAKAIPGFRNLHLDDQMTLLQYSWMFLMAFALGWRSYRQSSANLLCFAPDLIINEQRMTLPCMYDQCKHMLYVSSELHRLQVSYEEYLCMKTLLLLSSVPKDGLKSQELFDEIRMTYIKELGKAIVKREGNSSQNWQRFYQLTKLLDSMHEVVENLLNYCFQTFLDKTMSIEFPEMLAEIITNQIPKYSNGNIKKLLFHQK
The conditions noted are these: hela s3.

In data set [9] the target is Cytochrome P450 2E1 (Homo sapiens, UniProt P05181). Particulars: bti-tn-5b1-4. Also: in other assays of this panel Not Active means under 50% inhibition at 10 µM.

pIC50, pKi: −log10 of the molar value.

Cytochrome P450 2E1, sequence (P05181 whole entry): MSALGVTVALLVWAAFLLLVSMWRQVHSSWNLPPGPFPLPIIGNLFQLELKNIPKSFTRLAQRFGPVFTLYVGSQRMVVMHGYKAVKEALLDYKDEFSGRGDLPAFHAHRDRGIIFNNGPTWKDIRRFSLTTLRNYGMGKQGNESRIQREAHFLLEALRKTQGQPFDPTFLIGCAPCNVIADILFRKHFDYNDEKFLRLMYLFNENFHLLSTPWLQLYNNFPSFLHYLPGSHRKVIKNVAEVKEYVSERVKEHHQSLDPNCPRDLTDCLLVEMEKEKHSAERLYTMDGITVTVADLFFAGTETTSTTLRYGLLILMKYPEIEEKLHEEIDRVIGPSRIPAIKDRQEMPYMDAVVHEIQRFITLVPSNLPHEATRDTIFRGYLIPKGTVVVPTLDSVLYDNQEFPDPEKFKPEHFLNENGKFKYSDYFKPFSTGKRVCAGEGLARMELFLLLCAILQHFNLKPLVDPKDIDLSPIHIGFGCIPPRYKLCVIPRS

Consider `C[N+](C)(C)C[C@H](O)CC(=O)[O-]` [LEVOCARNITINE], for which the IC50 result in data set [1], in data set [2], in data set [3], in [4], in data set [5] and in [6] was “Not Active” throughout. In addition, the IC50 result in data set [7], in data set [8] and in data set [9] was “Not Active” throughout. In addition, the Ki entry in data set [5] and in [9] was “Not Active” each time.

In the case of `CCn1cc(C(=O)O)c(=O)c2cc(F)c(N3CCNC(C)C3)c(F)c21` (configuration not stated) [LOMEFLOXACIN], the IC50 entry in [1], in data set [2], in data set [3], in data set [4], in [5] and in data set [6] was “Not Active” throughout. For the same compound, the IC50 result in [7], in data set [8] and in [9] was “Not Active” throughout. Further, the Ki entry in [5] and in data set [9] was “Not Active” each time.

Broadly, the pIC50 is −log10 of the IC50, conventionally taken in molar units. The pKi is the negative decadic logarithm of the Ki, by convention in mol/L. For the compound `CN1CCCC(CN2c3ccccc3Sc3ccccc32)C1` (configuration not stated) [MEPAZINE], the IC50 entry in data set [1], in data set [2], in [3], in data set [4], in data set [5] and in data set [7] was “Not Active” throughout. Also, the IC50 entry in [8] and in [9] was “Not Active” in each case. The Ki entry in data set [5] and in data set [9] was “Not Active” throughout. Further, the pIC50 in data set [6] (read-out: IC50) was 6.86. The pKi in data set [6] (read-out: Ki) was 7.17.

Regarding `Cc1cccc(C)c1NC(=O)C1CCCCN1C` (configuration not stated) [MEPIVACAINE], the IC50 entry in data set [1], in data set [2], in data set [3], in data set [4], in data set [5] and in data set [6] was “Not Active” in each case. In addition, the IC50 entry in data set [7], in data set [8] and in data set [9] was “Not Active” throughout. Moreover, the Ki result in data set [5] and in data set [9] was “Not Active” throughout.

Turning to `CN(C)C(=N)NC(=N)N` [METFORMIN], the IC50 entry in data set [1], in [2], in data set [3], in [4], in data set [5] and in [6] was “Not Active” each time. The IC50 result in [7], in data set [8] and in data set [9] was “Not Active” throughout. Also, the Ki entry in data set [5] and in [9] was “Not Active” throughout.

For the compound `CC(C)(C)NCC(O)COc1cccc2c1CC(O)C(O)C2` (configuration not stated) [NADOLOL], the IC50 entry in data set [1], in data set [2], in [3], in data set [4], in [5] and in [6] was “Not Active” throughout. The IC50 entry in data set [7], in data set [8] and in [9] was “Not Active” in each case. The Ki entry in data set [5] and in [9] was “Not Active” in each case.

Take `C[C@]12CC[C@H]3[C@@H](CCC4=CC(=O)CC[C@@H]43)[C@@H]1CC[C@@H]2O` [NANDROLONE]: the IC50 entry in data set [1], in [2], in data set [3], in [4], in [5] and in data set [6] was “Not Active” each time. In addition, the IC50 entry in data set [7], in data set [8] and in data set [9] was “Not Active” in each case. The Ki result in data set [5] and in data set [9] was “Not Active” in each case.

Regarding `CN(C)C(=O)Oc1cccc([N+](C)(C)C)c1.[Br-]` [NEOSTIGMINE BROMIDE], the IC50 entry in data set [1], in data set [2], in [3], in data set [4], in data set [5] and in [6] was “Not Active” throughout. The IC50 result in [7], in data set [8] and in data set [9] was “Not Active” throughout. The Ki result in [5] and in [9] was “Not Active” each time.

On to `NC(=O)c1cccnc1` [NIACINAMIDE], for which the IC50 entry in data set [1], in [2], in data set [3], in data set [4], in [5] and in [6] was “Not Active” in each case. The IC50 result in [7], in data set [8] and in [9] was “Not Active” in each case. Besides, the Ki result in [5] and in [9] was “Not Active” in each case.

For `CN1C(=O)CN=C(c2ccccc2)c2cc([N+](=O)[O-])ccc21` [NIMETAZEPAM], the IC50 result in [1], in [2], in data set [3], in data set [4], in [5] and in data set [6] was “Not Active” in each case. In addition, the IC50 entry in [7], in data set [8] and in [9] was “Not Active” in each case. Further, the Ki result in [5] and in [9] was “Not Active” in each case.

As for `COc1ccc2c(c1OC)C(=O)O[C@@H]2[C@H]1c2c(cc3c(c2OC)OCO3)CCN1C` [NOSCAPINE], the IC50 result in data set [1], in data set [2], in data set [3], in data set [4], in data set [5] and in data set [6] was “Not Active” in each case. In addition, the IC50 entry in data set [7], in data set [8] and in [9] was “Not Active” each time. In addition, the Ki entry in [5] and in [9] was “Not Active” in each case.
